In US20120258938A1, “Enzymatic Production or Chemical Synthesis and Uses for 5,7-Dienes and UVB Conversion Products Thereof” (priority 2008, published 2012):

Experiments:
CYP27A1 [1] = assay: Real-time RT PCR CYP27A1 mRNA, normal epidermal keratinocytes; format: cell-based, human; details: 10^−8 M, 24 h
Method: (§1) RNA was extracted using an Absolutely RNA RT-PCR Miniprep Kit (Stratagene, La Jolla, Calif.). Real time PCR and reverse transcription products were purchased from Applied Biosystems, Foster City, Calif. Reverse transcription was performed using Taqman® Reverse Transcription Reagents. The following PCR products were used: cytokeratin 14: Hs00265033_m1, involucrin: Hs00846307_s1, CYP27A1: Hs00168003_ml, CYP27B1: Hs00168017_ml, 18SrRNA: Hs99999901_s1. The reaction was performed with Taqman® Universal PCR Master Mix; data were collected on an ABI Prism 7700 and analyzed on Sequence Detector 1.9.1. Specific gene amounts were related to 18SrRNA by comparative CT method.

involucrin [2] = assay: Involucrin protein expression in HaCaT (flow cytometry, microscopy); format: cell-based, human; details: 10^−8 M, 24 h, flow cytometry
HaCaT keratinocytes [3] = assay: Colony forming (clonogenicity) assay in HaCaT keratinocytes; format: cell-based, human; details: 10^−8 M, 10 days
Method: HaCaT and human adult epidermal keratinocytes were cultured and DNA synthesis experiments were performed as described previously (26). Cells were plated in 6-well plates at a density of 20 cells/cm^2 in DMEM (Cellgro, Herndon Va.) containing 5% charcoal-treated fetal bovine serum (Hyclone, Logan, Utah), 1% antibiotic solution (PSA, Sigma, St. Louis, […].) and vehicle or secosteroids. Cells were incubated in 37° C. for 10 days with media being changed every 72 hr. Cells were fixed with 4% paraformaldehyde in PBS overnight, stained with 0.5% crystal violet in PBS for 15 min, rinsed and air-dried. The number and size of the colonies were measured using an ARTEK counter 880 (Dynex Technologies Inc., Chantilly, Va.). Colony forming units were calculated as follows: number of colonies (size>0.5 mm) was divided by the number of cells plated and multiplied by 100.

CYP27B1 = assay: Real-time RT PCR CYP27B1 mRNA, normal epidermal keratinocytes; format: cell-based, human; details: 10^−8 M, 1 h
Method: as §1

involucrin [4] = assay: Real-time RT PCR involucrin mRNA, normal human epidermal keratinocytes; format: cell-based; details: 10^−8 M, 6 h
Method: as §1

rat CYP24 = molecular target: T1, rat CYP24 (Rattus norvegicus, UniProt Q09128); assay: Metabolism by rat CYP24 in phospholipid vesicles
T1 sequence (Q09128 36-514): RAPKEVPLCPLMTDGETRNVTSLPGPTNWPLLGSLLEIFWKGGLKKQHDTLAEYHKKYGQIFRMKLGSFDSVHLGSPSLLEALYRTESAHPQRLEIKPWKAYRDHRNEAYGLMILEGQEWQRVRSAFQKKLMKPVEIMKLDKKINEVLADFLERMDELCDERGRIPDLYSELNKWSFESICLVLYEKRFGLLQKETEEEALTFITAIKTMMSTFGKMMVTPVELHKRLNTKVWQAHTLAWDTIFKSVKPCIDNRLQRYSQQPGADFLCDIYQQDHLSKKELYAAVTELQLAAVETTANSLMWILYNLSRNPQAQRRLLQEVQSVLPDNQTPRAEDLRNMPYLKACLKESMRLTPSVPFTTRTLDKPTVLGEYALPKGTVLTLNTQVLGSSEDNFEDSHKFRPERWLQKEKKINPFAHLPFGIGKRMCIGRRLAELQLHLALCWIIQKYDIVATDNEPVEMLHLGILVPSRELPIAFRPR
Method: Samples (typically 0.25-1.0 mL) were incubated at 37° C., with shaking, then reactions terminated by the addition of 2.5 mL ice-cold dichloromethane and vortexing. After phase separation aided by centrifugation, the lower organic phase was retained and the upper aqueous phase was extracted twice more with 2.5 mL aliquots of dichloromethane. The dichloromethane was removed under nitrogen and the residual sample dissolved in solvent for HPLC analysis.
(§2) To test enzymatic metabolism of 20S(OH)D3 and 20R(OH)D3, the substrates were incorporated into phospholipid vesicles with the ratio of substrate to phospholipid being 0.025 mol/mol phospholipid. Vesicles were incubated with 2 μM bovine CYP11A1 or 0.06 μM human CYP27B1 for up to 10 min. To test enzymatic metabolism of 20(OH)D3 in CYP24, the substrate was incorporated into phospholipids vesicles with 0.15-0.5 μM CYP24. To test enzymatic metabolism of 20(OH)D3 in CYP27A1, purified CYP27A1 was preincubated with the vesicles for 6 min at 37° C. Adrenodoxin was added last to initiate the reaction. For kinetic experiments, the incubations were typically 0.5 mL and were carried out over the initial linear period of the reaction (10 min for vitamin D3 and cholesterol and 30 min for 20(OH)D3).

HaCaT keratinocytes [5] = assay: Forward and side scatter (cell size, granularity) of HaCaT keratinocytes; format: cell-based, human; details: HaCaT; 20-hydroxycholecalciferol at 0.1 nM
Method: The FL-1 signal (collected from 10,000 events in side scatter/forward scatter window after debris exclusion) was recorded. Forward (relative to cell size) and side (relative to cell granularity) scatter histograms were generated and mean signal intensity was recorded. FL-1 signal values are presented as dMFI (difference between mean fluorescence intensity of sample stained with specific and isotype control antibody). Scatter signal values are presented as MSI (mean signal intensity). Signal intensities were analyzed with Cell Quest (BD Biosciences, San Diego, Calif.) and graphical representations of the FL-1 signal were prepared with WinMdi 2.8 (shareware from Joseph Trotter, The Scripps Research Institute, San Diego, Calif.).

CYP24 promoter = assay: CYP24-Luc reporter in normal epidermal keratinocytes; format: cell-based, human; details: 24 h
Source text: The CYP24-Luc construct was a generous gift from Dr Tai Cheng (Boston University Medical Campus, Core Lab Director). It was originally developed by Vaisanen et al. (27). The details of the pLuc construct have been described previously (28-29). Normal epidermal keratinocytes were transfected using Lipofectamine Plus (Invitrogen, Carlsbad, Calif.) in Epilife medium with firefly luciferase reporter gene plasmid and with phRL-TK (expresses Renilla luciferase and serves as normalization control; Promega, Madison, Wis.). After transfection, cells were incubated for 24 hours in EpiLife medium with HKGS. Cells were then transferred to fresh media containing the compounds to be tested or vehicle (ethanol) and incubated for 24 hours. The firefly luciferase and Renilla luciferase signals were recorded with a TD-20/20 luminometer (Turner Designs, Sunnyvale, Calif.); background luminescence was subtracted and the resulting promoter-specific firefly signal was divided by the Renilla signal (proportional to the number of transfected cells). The values obtained were divided by the mean of control (untreated) cells.

CYP27A1 [6] = molecular target: T2, CYP27A1 (Homo sapiens, UniProt Q02318); assay: Metabolism by CYP27A1 (cyclodextrin or phospholipid vesicles); details: cyclodextrin
T2 sequence (Q02318 34-531): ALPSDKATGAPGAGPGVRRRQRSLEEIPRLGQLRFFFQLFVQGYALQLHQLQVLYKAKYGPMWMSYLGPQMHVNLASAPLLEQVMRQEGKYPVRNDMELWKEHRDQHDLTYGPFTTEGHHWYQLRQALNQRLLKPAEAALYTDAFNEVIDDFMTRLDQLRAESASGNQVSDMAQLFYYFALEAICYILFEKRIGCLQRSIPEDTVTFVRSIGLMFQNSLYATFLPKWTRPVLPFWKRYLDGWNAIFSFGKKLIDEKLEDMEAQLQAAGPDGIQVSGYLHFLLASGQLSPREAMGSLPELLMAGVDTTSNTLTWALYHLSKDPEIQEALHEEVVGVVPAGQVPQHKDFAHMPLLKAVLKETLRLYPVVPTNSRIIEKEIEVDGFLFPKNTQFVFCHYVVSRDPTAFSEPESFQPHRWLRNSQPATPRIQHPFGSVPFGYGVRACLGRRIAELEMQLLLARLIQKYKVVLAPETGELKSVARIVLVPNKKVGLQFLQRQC
Method: as §2
Kinetic characterization of the metabolism of 20(OH)D3 by CYP27A1 was carried out with substrate dissolved in either cyclodextrin or phospholipid vesicle. Vitamin D3 and 20(OH)D3 were incubated with 0.4 μM CYP27A1 and 1 μM CYP27A1, respectively, for 10 and 30 min. The products were analyzed by reverse phase HPLC. The hyperbolic curves were fitted using the equation v/[E]=(kcat—[S])/(Km+[S]) where v is reaction velocity, [E] is the CYP27A1 concentration, and [S] the substrate concentration.

cytochrome P450scc = molecular target: T3, cytochrome P450scc (Bos taurus, UniProt P00189); assay: Metabolism by cytochrome P450scc in cyclodextrin; details: substrate in 0.45% cyclodextrin
T3 sequence (P00189 40-520): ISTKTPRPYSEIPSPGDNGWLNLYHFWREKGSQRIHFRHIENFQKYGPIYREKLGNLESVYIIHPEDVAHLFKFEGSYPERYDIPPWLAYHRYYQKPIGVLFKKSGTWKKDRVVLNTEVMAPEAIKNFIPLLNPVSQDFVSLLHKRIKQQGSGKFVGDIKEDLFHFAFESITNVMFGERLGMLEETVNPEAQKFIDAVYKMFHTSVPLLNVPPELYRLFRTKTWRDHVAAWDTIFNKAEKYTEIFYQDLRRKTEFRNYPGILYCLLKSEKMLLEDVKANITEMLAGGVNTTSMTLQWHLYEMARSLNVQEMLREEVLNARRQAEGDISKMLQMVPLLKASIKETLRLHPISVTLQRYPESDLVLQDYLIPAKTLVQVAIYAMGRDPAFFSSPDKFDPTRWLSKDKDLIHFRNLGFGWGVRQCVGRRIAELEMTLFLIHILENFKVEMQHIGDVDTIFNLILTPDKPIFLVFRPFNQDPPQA
Method: Adrenodoxin was expressed in Escherichia coli and purified as described before (41). […] Metabolites were analysed using a Perkin Elmer HPLC equipped with a C18 column (Brownlee Aquapore, 22 cm×4.6 mm, particle size 7 μm).

Col1A1 mRNA = assay: Real time RT PCR Col1A1 mRNA, TGF-b1 stimulated skin fibroblasts; format: cell-based; details: human skin fibroblasts
Method: Additional studies using human skin fibroblasts were performed employing a type I collagen specific ELISA Chondrex, and real time RT PCR to quantitate type I collagen protein and Col1A1 mRNA expression in culture of human fibroblast stimulated by TGF-b1 in the presence and absence of 17,20S(OH)2pD3 and/or 20(OH)D3. These studies confirmed that Type I collagen protein production that was induced by TGF-b1 and that Col1A1 mRNA that was induced by TGF-b1 were suppressed by these analogues (FIGS. 44A-44B).

## C=C1CC[C@H](O)C/C1=C/C=C1\CCC[C@]2(C)[C@@H]([C@H](C)CCCC(C)(C)O)CC[C@@H]12 [25-hydroxycholecalciferol, (5Z,7E)-9,10-secocholesta-5,7,10(19)-triene-3β,25-diol, reference compound]
CYP27A1 [1]
  inhibition of CYP27A1 expression: ~1.9 fold
Involucrin [2]
  increase in the expression of involucrin: negligible
HaCaT keratinocytes [3]
  inhibition of colony formation: no significant effect
CYP27B1
  increase of CYP27B1 expression: ~1.3 fold
Involucrin [4]
  stimulation of involucrin mRNA: ~2.1 fold
Rat CYP24
  Km: 0.0080±0.0016 mol substrate/mol phospholipid
Rat CYP24; phospholipid vesicles
  kcat: 52.6±2.9 mol/min/mol CYP24
  kcat higher than that for 1,25(OH)2D3: 3.8 fold
HaCaT keratinocytes [5]
  forward scatter, mean signal intensity (MSI): 254±0.06
CYP24 promoter
  stimulation of transcriptional activity of the CYP24 promoter: ~12 fold

## C=C1CC[C@H](O)C/C1=C/C=C1\CCC[C@]2(C)[C@@H]([C@H](C)CCCC(C)C)CC[C@@H]12 [cholecalciferol, (5Z,7E)-9,10-secocholesta-5,7,10(19)-triene-3β-ol, reference compound]
CYP27A1 [6]
  kcat: 0.0283 ± 0.00233 s⁻¹
Cytochrome P450scc
  kcat: 19.7±0.9 mol/min P450scc

## C=C1CCC(O)CC1=CC=C1CCCC2(C)C1CCC2(O)C(C)O [17,20Rdi(OH)pD, (5Z,7E)-(20R)-9,10-secopregna-5,7,10(19)-triene-3β,17α,20-triol]
Col1A1 mRNA
  TGF-b1 induced Col1A1 mRNA: reduce TGF-β1 induced Col1A1 mRNA
